Results: EP1973398B1, “USE OF INOSITOL-TRIPYROPHOSPHATE IN TREATING TUMORS MEDIATED BY ANGIOGENESIS” (NormOxys, Inc., priority 2006, dated 2007)

Columns and labels:
hemoglobin [1] = target: T1, hemoglobin (Homo sapiens, UniProt P68871); settings: relative to DPG; cited from earlier work
hemoglobin [2] = target: T1, hemoglobin; settings: pH 7.4, 37 degrees C.; cited from earlier work
[3] = Tolerability, serum ions and blood counts in mice after oral ITPP; assay type: in vivo, C57BL/6 mice
Method: Three (3) control mice drank pure water, and four (4) control mice a solution of myoinositol hexaphosphate (IHP) (same concentration and pH as ITPP).
Figure 3 contains the mean values and SD for the serum concentration of sodium, potassium and calcium obtained on day 0, 7 and 11 after start drinking ITPP (4 mice), IHP (3 mice) or water (3 mice).
Blood counts were measured from all mice, on day 0, 7 and 11.

[4] = Tolerability and serum ions in mice after intraperitoneal ITPP; assay type: in vivo
Method: (§1) When ITPP (pH 7, 200µl) was injected intraperitoneally in mice, the P50 values of circulating red blood cells were shifted up to 23%. […] The level of ions, such as sodium, potassium and calcium were normal after ip injection. Six (6) mice were each injected intraperitoneally with 45-150 mM (= 0.17-0.88 g/kg body weight) of ITPP.

murine hemoglobin = murine hemoglobin (Mus musculus, UniProt P01942+P02088); assay: In vitro P50 shift, mixtures of hemoglobin and ITPP, HEMOX analyzer; assay type: biochemical; settings: with murine hemoglobin
Method: ITPP was tested for its ability to induce a decrease of the O2-affinity of hemoglobin measured as a shift of the P50 value (P50 at 50% saturation of hemoglobin). With murine hemoglobin and whole blood, P50 shifts to higher PO2 of up to 250% with hemoglobin and up to 40% with whole blood were observed.
For the in vitro experiments ITPP was dissolved in deionized water, pH was adjusted at pH 7 and, for incubation with whole blood, the osmolality of the ITPP solutions was adjusted with glucose to 270-297 mOsM. Mixtures of hemoglobin and ITPP were measured with a HEMOX analyzer (PD Marketing, London) immediately. Red blood cells were incubated with ITPP for 1 hour at 37[deg.]C. Following incubation, the cells were washed 3 times with Bis-Tris-buffer (PH=7.0) and then used for P50 measurement.

VEGF mRNA = VEGF mRNA by RT-PCR in Lewis Lung carcinoma tumors of mice drinking ITPP; assay type: in vivo, C57BL/6 mice; settings: LLC tumors, mice having received ITPP 20g/L orally, day 9, versus controls; quantification of gel assays
Method: ITPP, when administered orally, intravenously, or intraperitoneally, inhibits angiogenesis in growing tumors by enhancing PO2 in the forming tumors. […] All animals received then 1x10^6 Lewis Lung carcinoma (LLC) cells, injected in the dorsal cavity. At different time points, the VEGF mRNA were assayed by RT-PCR in the tumors growing in both groups of mice.
There was a difference in the level of mRNA of the VEGF gene in both groups. […] The RT-PCR agarose gel assay of VEGF mRNAs from tumor tissue taken from 2 mice each on day 15 after inoculation of LLC cells (track 1: controls, track 2: ITPP treated animals) and day 30 after inoculation (track 3: control animals, track 4: ITPP treated animals).
Quantification of the gel assays indicated a reduction by a factor of 10,000 of the amount of VEGF mRNAs detected in the tumors of animals having received ITPP, at day 9 and then, while differences remain between treated and untreated animals, they tend to decrease.

[5] = Serum ion levels in piglets after intravenous ITPP; assay type: in vivo; settings: for Ca^2+ conc.: piglet's circulation blood
Method: In order to check possible side effects of ITPP the level of calcium in the serum of the injected piglet was determined. A strong drop in the Ca^2+ concentration in the animal's blood immediately after infusion indicated the possibility that ITPP, with 3 dissociated phosphate groups binds Ca^2+, reducing thus its availability as free ion in the blood. One day after infusion the concentration of Ca^2+ in the piglets' blood was restored to the normal value. Table 1: Ca2+ concentration in the piglet's circulation blood
(§2) Based upon this observation, a CaCl2 (equimolar to ITPP) solution was injected with the ITPP solution, so that the dissociated phosphate groups of ITPP were saturated. None of the side effects observed previously occurred. […] The level of the other ions sodium and potassium was unchanged after IV injection of ITPP in piglets.

[6] = system: circulating red blood cells; assay: Right shift of the ODC in mice, ITPP injected intraperitoneally; assay type: in vivo; settings: intraperitoneal, pH 7, 200µl, 45-150 mM (0.17-0.88 g/kg body weight)
Method: as §1

[7] = system: murine circulating red blood cells; assay: Right shift of the O2-hemoglobin dissociation curve in mice, ITPP orally in drinking water; assay type: in vivo, C57BL/6 mice
Method: ITPP was dissolved in drinking water at a 20g/L-concentration (= 27mM, pH ~7.0.) and offered for drinking ad libitum.
Twelve (12) C57BL/6 mice were fed the ITPP-solution (20g/L-concentration = 27mM, pH -7.0) for 4 days (up to 25 ml per 24 hrs). Three (3) control mice drank pure water, and four (4) control mice a solution of myoinositol hexaphosphate (IHP) (same concentration and pH as ITPP). Blood was collected from all mice on day 0 (before treatment started), and on days 1, 2, 4, 6, 7, 8, 10, 11 and 12 (after treatment had started), in order to measure P50 values.

whole blood = assay: In vitro P50 shift, whole blood / red blood cells incubated with ITPP; assay type: cell-based, murine
[8] = Right shift of P50 in piglets, ITPP injected intravenously; assay type: in vivo
Method: ITPP was also injected intravenously (IV) in piglets.
as §2

T1 sequence (P69905 2-142 partner limits assumed): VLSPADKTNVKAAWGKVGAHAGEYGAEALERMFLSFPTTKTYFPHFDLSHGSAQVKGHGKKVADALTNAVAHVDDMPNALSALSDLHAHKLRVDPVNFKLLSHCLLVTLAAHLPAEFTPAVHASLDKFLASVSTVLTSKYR
T1 sequence (P68871 2-147 limits assumed): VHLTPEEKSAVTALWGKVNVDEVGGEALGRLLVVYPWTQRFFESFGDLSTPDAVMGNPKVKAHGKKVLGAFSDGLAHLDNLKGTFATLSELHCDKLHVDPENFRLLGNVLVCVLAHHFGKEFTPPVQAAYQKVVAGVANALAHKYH
Sequence of murine hemoglobin (P01942 2-142 limits assumed): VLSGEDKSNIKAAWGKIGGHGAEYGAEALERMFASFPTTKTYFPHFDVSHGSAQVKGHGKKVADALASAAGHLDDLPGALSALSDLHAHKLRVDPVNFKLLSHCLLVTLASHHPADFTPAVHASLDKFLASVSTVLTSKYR
Sequence of murine hemoglobin (P02088 2-147 limits assumed): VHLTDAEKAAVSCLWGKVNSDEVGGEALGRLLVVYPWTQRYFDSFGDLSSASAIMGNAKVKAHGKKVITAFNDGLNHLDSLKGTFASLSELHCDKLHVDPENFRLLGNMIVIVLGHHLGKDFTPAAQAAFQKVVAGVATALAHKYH

O=P(O)(O)O[C@H]1[C@H](OP(=O)(O)O)[C@@H](OP(=O)(O)O)[C@H](OP(=O)(O)O)[C@@H](OP(=O)(O)O)[C@H]1OP(=O)(O)O [IHP, inositol hexaphosphate]
higher affinity to hemoglobin than DPG (hemoglobin [1]): 1000 fold
P50 of hemoglobin (hemoglobin [2]): ≤ 96.4 mm, Hg

O=P1(O)OC2C3OP(=O)(O)OP(=O)(O)OC3C3OP(=O)(O)OP(=O)(O)OC3C2OP(=O)(O)O1 (stereo not drawn) [ITPP, inositol-tripyrophosphate]
basal value of the red blood cell count ([3]; 12 days after ingestion of ITPP, once ΔP50 becomes 0%): restored
toxicity ([3]; administered orally): little or no toxicity
number of white blood cells ([3]; blood from mice in different groups, day 0, 7 and 11): no significant differences
number of red blood cells ([3]; mice having ingested ITPP, blood counts day 0, 7 and 11): reduced
acceptance / harm to the animals ([3]; mice, ITPP-solution 20g/L (27mM) in drinking water for 4 days): neither rejected by the mice, nor harmful to the animals
level of ions, such as sodium and potassium and calcium ([3]; mice, after oral application, serum, day 0, 7 and 11): normal
concentration well tolerated by mice ([4]; intraperitoneal injection): ≤ 150 mM
level of ions, such as sodium, potassium and calcium ([4]; mice, after ip injection): normal
P50 shifts to higher PO2 (murine hemoglobin): up to 250%
reduction of the amount of VEGF mRNAs detected in the tumors (VEGF mRNA): 10,000 factor
Ca^2+ conc. ([5]; 10 min after completion of injection (before injection 2.38)): 1.73 mmol/L
Ca^2+ conc. ([5]; 24 hrs after injection (before injection 2.38)): 2.36 mmol/L
level of calcium ([5]; piglets, IV, CaCl2 (equimolar to ITPP) injected with ITPP): remained constant
level of the other ions sodium and potassium ([5]; piglets, after IV injection of ITPP): unchanged
P50 values of circulating red blood cells shifted [6]: up to 23%
P50 values after 12 days ([7]; ingestion stopped on day 4): back to control values
right shifts of P50 ([7]; mice, oral application, 27 mM): up to 31%
time lag before the maximum shift is attained ([7]; mice, oral, 27 mM): approximately 48 hrs
lysis of the red blood cells (whole blood; in vitro): never occurred
P50 shifts to higher PO2 (whole blood; with murine whole blood): up to 40%
P50 shift ([8]; IV, CaCl2 solution (equimolar to ITPP) injected with the ITPP solution): approximately 20 % of the basal value
shift of P50 ([8]; intravenous): right shift of P50 was observed
